Source: patent publication US10428064B2, “Fused-tricyclic inhibitors of KRAS and methods of use thereof” (Araxes Pharma LLC, priority 2015, dated 2019)

Target: T1, KRAS G12C 1-169, his-tagged protein, GDP-loaded (Homo sapiens, UniProt P01116, G12C)
T1 construct: KRAS G12C 1-169, his-tagged protein, GDP-loaded
Test: Biochemical assay: covalent modification of KRAS G12C protein measured by mass spectrometry (RapidFire/TOF or Q-Exactive)
Settings: covalent binding to KRAS G12C
Method: Test compounds are prepared as 10 mM stock solutions in DMSO (Fisher cat # BP-231-100). KRAS G12C 1-169, his-tagged protein, GDP-loaded is diluted to […] in buffer (20 mM Hepes, 150 mM NaCl, 1 mM MgCl2). Compounds are tested for activity as follows:
Compounds are diluted to 50× final test concentration in DMSO in 96-well storage plates. Compound stock solutions are vortexed before use and observed carefully for any sign of precipitation. […] The plate is then resealed with aluminum seal and stored on dry ice until analyzed as described below.
The above described assays are analyzed by mass spectrometry according to one of the following two procedures: […]
After another 30 minute equilibration time, a blank batch (i.e., buffer) is run to ensure equipment is operating properly. […] The method is then run and masses of each individual well recorded. […]
The masses and peak intensities of KRAS G12C protein species are measured using a Dionex RSLCnano system (Thermo Scientific) connected to a Q Exactive Plus mass spectrometer (Thermo Scientific). […]
The mass spectrometer is operated in profile mode at a resolution of 17500, 5 microscans, using 50 msec max injection time and an AGC target of 1e6, and a full mass range from 800-1850 m/z is recorded. […]

T1 sequence (P01116 1-169 isoform P01116-2 G12C): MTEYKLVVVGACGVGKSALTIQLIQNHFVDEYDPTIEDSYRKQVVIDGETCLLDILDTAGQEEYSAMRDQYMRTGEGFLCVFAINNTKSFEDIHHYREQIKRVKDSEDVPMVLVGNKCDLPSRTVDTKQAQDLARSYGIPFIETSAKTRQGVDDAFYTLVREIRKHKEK

Row | SMILES | Binding %
1 | C=CC(=O)N1CCN(c2c3c(nc4c(F)c(-c5c(O)cccc5F)c(Cl)cc24)NC(=O)NC3)CC1 [Compound 1, 5-(4-acryloylpiperazin-1-yl)-7-chloro-9-fluoro-8-(2-fluoro-6-hydroxyphenyl)-3,4-dihydropyrimido [4,5-b]quinolin-2(1H)-one] | ++ (++ indicates binding activity greater than 50%)
2 | C=CC(=O)N1CCN(c2c3c(nc4c(F)c(-c5c(O)cccc5F)c(Cl)cc24)CCN(C)C3=O)CC1 [Compound 19, 10-(4-acryloylpiperazin-1-yl)-8-chloro-6-fluoro-7-(2-fluoro-6-hydroxyphenyl)-2-methyl-3,4-dihydrobenzo[b] [1,6]naphthyridin-1(2H)-one] | + (+ indicates binding activity up to 50%)
